The target of the assay is 5-HT4 receptors (Homo sapiens (Human), UniProt Q13639). Briefly: Determination of EC50 values for 5-HT4 receptor (pCRE-Luc reporter assay). In kind it is cell-based. To be noted: CHO cells expressing recombinant human 5-HT4 receptor and pCRE-Luc reporter; 4 h incubation; luciferase activity. On the procedure: A stable CHO cell line expressing recombinant human 5-HT4 receptor and pCRE-Luc reporter system was used for cell-based assay. The assay offers a non-radioactive based approach to determine binding of a compound to GPCRs. In this specific assay, the level of intracellular cyclic AMP, which is modulated by activation, or inhibition of the receptor is measured. The recombinant cells harbor luciferase reporter gene under the control of cAMP response element.
Chain of 5-HT4 receptors (Q13639 whole entry): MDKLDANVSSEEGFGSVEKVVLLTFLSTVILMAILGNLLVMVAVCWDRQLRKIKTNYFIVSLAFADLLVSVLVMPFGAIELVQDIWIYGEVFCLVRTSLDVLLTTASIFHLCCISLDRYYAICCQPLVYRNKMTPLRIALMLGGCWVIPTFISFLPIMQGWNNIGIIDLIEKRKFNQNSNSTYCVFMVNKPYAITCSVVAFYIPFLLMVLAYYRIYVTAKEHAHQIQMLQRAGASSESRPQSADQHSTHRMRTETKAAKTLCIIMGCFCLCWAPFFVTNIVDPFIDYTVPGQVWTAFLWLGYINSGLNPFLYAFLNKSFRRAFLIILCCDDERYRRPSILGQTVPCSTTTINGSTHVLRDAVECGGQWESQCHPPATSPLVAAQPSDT
The above cells were grown in 96 well clear bottom white plates in Ham's F12 medium containing 10% fetal bovine serum. Prior to the addition of compounds or standard agonist, cells were serum starved overnight. Increasing concentrations of test compounds were added to the cells in OptiMEM medium. The incubation was continued in CO2 incubator at 37° C. with 5% CO2 conditions for 4 h. Medium was removed and cells were washed with phosphate buffered saline. The cells were lysed and luciferase activity was measured in a Luminometer. Concentration-response data was generated using the luciferase assay, following incubation of cells with receptor ligands, were analyzed by subtracting basal levels (i.e. with medium alone), then normalizing values as a percentage of controls (endogenous agonist serotonin (10 μM)). […] EC50 values of the compounds were defined as the concentration required in stimulating the luciferase activity by 50%.

The text below walks through data of US20250019386A1, “PYRROLO[1,2-b]-2-PYRIDAZINONE COMPOUNDS AS 5-HT4 RECEPTOR AGONISTS” (SUVEN LIFE SCIENCES LIMITED, priority 2022, published 2025).

Molecules are shown by their SMILES.

For orientation: EC50 means the concentration needed to bring the measured effect to its halfway point.

As to `CC(=O)NCCCN1C2CCC1CC(NC(=O)c1cc3cccn3n(C(C)C)c1=O)C2` (stereo not drawn) [Example 31, N-{8-[3-Acetamidopropyl]-8-azabicyclo[3.2.1]oct-3-yl} [1-isopropyl-2-oxo-1,2-dihydro pyrrolo[1,2-b]pyridazin]-3-carboxamide], the concentration for a half-maximal effect (EC50) came to 35.1 nM. The figure for `CC(C)n1c(=O)c(C(=O)NC2CC3CCC(C2)N3CC(O)CN(C)S(C)(=O)=O)cc2cccn21` (racemic) [Example 5, Racemic-N-{8-[2-Hydroxy-3-[(N-methyl)methanesulfonamido]propyl]-8-azabicyclo[3.2.1]oct-3-yl} [1-isopropyl-2-oxo-1,2-dihydro pyrrolo[1,2-b]pyridazine]-3-carboxamide] is 3.1 nM; for `COC(=O)NCCCN1C2CCC1CC(NC(=O)c1cc3cccn3n(C(C)C)c1=O)C2` (stereo not drawn) [Example 33, N-{8-[3-Carbomethoxyaminopropyl]-8-azabicyclo[3.2.1]oct-3-yl} [1-isopropyl-2-oxo-1,2-dihydro pyrrolo[1,2-b]pyridazin]-3-carboxamide] it is 12 nM. The figure for `CC(=O)N(C)C[C@H](O)CN1C2CCC1CC(NC(=O)c1cc3cccn3n(C(C)C)c1=O)C2` (stereo partly drawn) [Example 15, (R)-N-{8-[2-Hydroxy-3-[(N-methyl)acetamido]propyl]-8-azabicyclo[3.2.1]oct-3-yl} [1-isopropyl-2-oxo-1,2-dihydro pyrrolo[1,2-b]pyridazine]-3-carboxamide] is 8 nM; for `CC(C)n1c(=O)c(C(=O)NC2CC3CCC(C2)N3CCCNS(C)(=O)=O)cc2cccn21` [Example 24, N-{8-[3-[methanesulfonamido]propyl]-8-azabicyclo[3.2.1]oct-3-yl} [1-isopropyl-2-oxo-1,2-dihydro pyrrolo[1,2-b]pyridazine]-3-carboxamide L-(+)-tartarate] it is 11 nM. The figure for `CC(C)n1c(=O)c(C(=O)NC2CC3CCC(C2)N3C[C@@H](O)CNS(C)(=O)=O)cc2cccn21` (stereo partly drawn) [Example 14, (R)-N-{8-[2-Hydroxy-3-(methanesulfonamido)propyl]-8-azabicyclo[3.2.1]oct-3-yl} [1-isopropyl-2-oxo-1,2-dihydro pyrrolo[1,2-b]pyridazine]-3-carboxamide L-(+)-tartarate] is 6.3 nM. For `CC(C)n1c(=O)c(C(=O)NC2CC3CCC(C2)N3CCCNS(=O)(=O)C(C)C)cc2cccn21` (stereo not drawn) [Example 25, N-{8-[3-Isopropylsulfonylaminopropyl]-8-azabicyclo[3.2.1]oct-3-yl} [1-isopropyl-2-oxo-1,2-dihydro pyrrolo[1,2-b]pyridazin]-3-carboxamide], the EC50 turned out to be 13 nM. `CC(C)n1c(=O)c(C(=O)NC2CC3CCC(C2)N3C[C@@H](O)CN2CCN(S(C)(=O)=O)CC2)cc2cccn21` (stereo partly drawn) [Example 18, (R)-N-{8-[2-Hydroxy-3-[(1-methanesulfonylpiperazin)-4-yl]propyl]-8-azabicyclo[3.2.1]oct-3-yl} [1-isopropyl-2-oxo-1,2-dihydro pyrrolo[1,2-b]pyridazin]-3-carboxamide L(+)tartarate]: the EC50 was 2.4 nM. The figure for `COC(=O)NCCN1C2CCC1CC(NC(=O)c1cc3cccn3n(C(C)C)c1=O)C2` (stereo not drawn) [Example 35, N-{8-[2-Carbomethoxyaminomethyl]-8-azabicyclo[3.2.1]oct-3-yl} [1-isopropyl-2-oxo-1,2-dihydro pyrrolo[1,2-b]pyridazin]-3-carboxamide] is 12 nM; for `CC(C)n1c(=O)c(C(=O)NC2CC3CCC(C2)N3C[C@@H](O)CN(C)S(C)(=O)=O)cc2cccn21` (single isomer, unassigned) [Example 1] it is 2 nM; for `CC(=O)N1CCN(CCN2C3CCC2CC(NC(=O)c2cc4cccn4n(C(C)C)c2=O)C3)CC1` [Example 38, N-{8-[2-(4-Acetylpiperazin-1-yl)ethyl]-8-azabicyclo[3.2.1]oct-3-yl} [1-isopropyl-2-oxo-1,2-dihydro pyrrolo[1,2-b]pyridazine]-3-carboxamide L-(+)-tartrate] it is 15.4 nM. The figure for `CC(C)n1c(=O)c(C(=O)NC2CC3CCC(C2)N3CCNS(=O)(=O)C(C)C)cc2cccn21` (stereo not drawn) [Example 29, N-{8-[2-Isopropylsulfonylaminoethyl]-8-azabicyclo[3.2.1]oct-3-yl} [1-isopropyl-2-oxo-1,2-dihydro pyrrolo[1,2-b]pyridazin]-3-carboxamide] is 16 nM; for `CC(C)n1c(=O)c(C(=O)NC2CC3CCC(C2)N3C[C@H](O)CN(C)S(C)(=O)=O)cc2cccn21` (single isomer, unassigned) [Example 3] it is 9 nM; for `CC(C)n1c(=O)c(C(=O)NC2CC3CCC(C2)N3C[C@@H](O)CN(C)S(C)(=O)=O)c(O)c2cccn21` (stereo partly drawn) [Example 8, (R)-N-{8-[2-Hydroxy-3-[(N-methyl)methanesulfonamido]propyl]-8-azabicyclo[3.2.1]oct-3-yl} [4-hydroxy-1-isopropyl-2-oxo-1,2-dihydro pyrrolo[1,2-b]pyridazine]-3-carboxamide L-(+)-tartarate] it is 6.1 nM. For the molecule `CC(C)n1c(=O)c(C(=O)NC2CC3CCC(C2)N3CC(O)CN(C)S(C)(=O)=O)cc2cccn21` (racemic) [Example 6, Racemic-N-{8-[2-Hydroxy-3-[(N-methyl)methanesulfonamido]propyl]-8-azabicyclo[3.2.1]oct-3-yl} [1-isopropyl-2-oxo-1,2-dihydro pyrrolo[1,2-b]pyridazine]-3-carboxamide L(+)-tartarate], the EC50 was determined as 3.3 nM. The figure for `CC(C)n1c(=O)c(C(=O)NC2CC3CCC(C2)N3C[C@@H](O)CN2CCN(S(C)(=O)=O)CC2)c(O)c2cccn21` (stereo partly drawn) [Example 20, (R)-N-{8-[2-Hydroxy-3-[(1-methanesulfonylpiperazin)-4-yl]propyl]-8-azabicyclo[3.2.1]oct-3-yl} [4-hydroxy-1-isopropyl-2-oxo-1,2-dihydro pyrrolo[1,2-b]pyridazin]-3-carboxamide L-(+)-tartarate] is 14 nM. The figure for `CC(C)n1c(=O)c(C(=O)NC2CC3CCC(C2)N3C[C@@H](O)CN(C)S(C)(=O)=O)c(O)c2cccn21` (stereo partly drawn) [Example 7, (R)-N-{8-[2-Hydroxy-3-[(N-methyl)methanesulfonamido]propyl]-8-azabicyclo[3.2.1]oct-3-yl} [4-hydroxy-1-isopropyl-2-oxo-1,2-dihydro pyrrolo[1,2-b]pyridazine]-3-carboxamide] is 10.1 nM. On to `CC(C)n1c(=O)c(C(=O)NC2CC3CCC(C2)N3CCCN(C)S(C)(=O)=O)cc2cccn21` (stereo not drawn) [Example 22, N-{8-[3-[(N-Methyl)methanesulfonamido]propyl]-8-azabicyclo[3.2.1]oct-3-yl} [1-isopropyl-2-oxo-1,2-dihydro pyrrolo[1,2-b]pyridazine]-3-carboxamide], for which the EC50 amounted to 58 nM.
